Data published in the NIST ThermoML archive (doi:10.1021/acs.jced.7b00316).
± gives the expanded uncertainty stated by the source.

What was measured:
[1] = Crystal; DTA
[2] = Molar enthalpy of transition or fusion; details: Crystal; DSC

Normal melting temperature [1]: 151.11 ± 1.1 °C
Molar enthalpy of transition or fusion [2]: 4.79 ± 0.217 kcal/mol
SMILES: On1nnc2ccccc21 [1-benzotriazolol]
